# Laboratory results from PMC10014103, “The immunometabolite itaconate stimulates OXGR1 to promote mucociliary clearance during the pulmonary innate immune response” (The Journal of Clinical Investigation, 2023).
# Tests used:
# human OXGR1 [1] = target: T1, human OXGR1 (Homo sapiens, UniProt Q96P68); assay: cAMP GloSensor assay in HEK293 cells expressing human OXGR1; format: cell-based; conditions: 0.5 mM ligand, Gs/Gi coupling
# Description: For the GloSensor assay, HEK293 cells stably expressing pGloSensor-22F were transfected with GPCR plasmids. Thirty-six hours after transfection, cells were trypsinized and resuspended at a density of 2.5 × 10^5 cells/mL in HBSS supplemented with 10 mM HEPES, 0.5% BSA, 2% GloSensor cAMP Reagent stock solution (Promega), and 300 μM IBMX, and loaded with GloSensor substrates for 2 hours. Cell suspensions (100 μL) were aliquoted onto 96-well plates. Cells were treated with 0.5 mM of the indicated ligand or 1 μM forskolin, and luminance was recorded.
# FLAG-tagged OXGR1 [2] = assay: Endocytosis assay of FLAG-tagged OXGR1 in HEK293 cells; format: cell-based, human; conditions: after ITA treatment
# Description: (§1) For endocytosis assays, HEK293 cells stably expressing FLAG-OXGR1 were chilled on ice in DMEM medium supplemented with 30 mM HEPES for 10 minutes. […] Unbound antibody was then washed off with prechilled HBSS buffer. […] After ligand stimulation, cells were fixed and permeabilized. Subcellular localization of FLAG-tagged OXGR1 was detected using FITC-donkey anti-rabbit antibody (Invitrogen, Thermo Fisher Scientific), and nuclei were stained with DAPI (MilliporeSigma). Immunofluorescence images were captured with a Leica SP8 laser-scanning confocal microscope.
# FLAG-tagged OXGR1 [3] = target: T2, FLAG-tagged OXGR1 (Homo sapiens, UniProt Q96P68); assay: as above; format: cell-based; conditions: WT OXGR1, within 10 minutes of ligand treatment
# T2 construct: expressed in transfected cells
# Description: as §1
# [4] = system: primary respiratory epithelial cells from Oxgr1+/+ and Oxgr1–/– mice; assay: Calcium imaging (Fluo-4AM) of primary mouse trachea epithelial cells; format: cell-based; conditions: 670 μM ITA or 100 μM ATP
# Description: For calcium imaging of human primary bronchial epithelial cells, cells were infected with 2 CRISPR lentiviruses targeting OXGR1 and cultured for 2 days before calcium imaging. For calcium imaging of primary mouse cells, freshly isolated mouse tracheas were cut into rings, placed onto collagen-coated dishes, and cultured in DMEM supplemented with 10% FBS. Cells were loaded with 5 μM Fluo-4AM for 30 minutes in HBSS buffer, washed twice, and incubated for another 15 minutes for fully deesterification of Fluo-4AM. Cells loaded with Fluo-4AM were monitored with the BioTek Cytation 5 Cell imaging system every 300 ms for a total of 1.5 minutes after ligand administration. Fluorescence was quantified with ImageJ software (NIH).
# human OXGR1 [5] = target: T1, human OXGR1; assay: Stress fiber assay in NIH3T3 cells stably expressing OXGR1; format: cell-based, mouse; conditions: 500 μM ITA, 30 minutes, G12/13 coupling
# Description: For the stress fiber assay, NIH3T3 cells stably expressing OXGR1 were treated with 500 μM ITA or 10 μM lysophosphatidic acid (LPA) for 30 minutes. Cells were fixed with 4% paraformaldehyde and permeabilized with 0.1% Triton X-100. Stress fibers were stained with FITC-phalloidin (Invitrogen, Thermo Fisher Scientific). Nuclei were stained with DAPI. Immunofluorescence images were captured with a Leica SP8 laser-scanning confocal microscope.
# mouse trachea = assay: Ex vivo trachea culture, cilia beating-derived fluorescent bead movement; conditions: 500 μM ITA or 100 μM ATP
# Description: Tracheas were harvested from mice and cut longitudinally through the middle of the trachealis muscle to expose the lumen of the trachea. Tracheas were then transferred into HBSS buffer and equilibrated for 30 minutes. With the lumen facing down, trachea tissues were transferred into 2 mL HBSS buffer supplemented with 0.5% methylcellulose, red fluorescent beads, 30 mM HEPES, and the indicated ligand. Bead flow was monitored with the BioTek Cytation 5 cell imaging system. Twenty individual beads were tracked from different fields of view in each condition, and the speed of each bead was calculated by […].
# human OXGR1 [6] = target: T1, human OXGR1; assay: Fluo-4 assay in HEK293 cells expressing human OXGR1; format: cell-based; conditions: Fluo-4 assay, hOXGR1 in HEK293 cells; read-out: EC50
# Description: For the Fluo-4AM assay, OXGR1-expressing cells were loaded with 2 μM Fluo-4AM for 30 minutes at 37°C. Excess Fluo-4AM was then washed off with HBSS buffer. After incubation at 37°C for another 10 minutes, cells were transferred onto a 96-well plate.
# human OXGR1 [7] = target: T1, human OXGR1; assay: Aequorin assay (calcium mobilization) in HEK293 cells overexpressing human OXGR1; format: cell-based; conditions: for EC50: read-out: EC50
# Description: Thirty-six hours after transfection, cells were maintained in serum-free medium for 12 hours and then loaded with 5 μM coelenterazine for 3 hours. Cells were trypsinized and resuspended at a density of 5 × 10^5 cells/mL in HBSS supplemented with 10 mM HEPES and 0.5% BSA. Cell suspensions of 100 μL were aliquoted into 96-well plates.
# [8] = system: mucin 5b and β-defensin 1; assay: ELISA of mucin 5b and β-defensin 1 in BAL of P. aeruginosa infected mice; format: in vivo, mouse; conditions: ITA intranasal supplementation, P. aeruginosa infection
# Source text: Mucins and antimicrobial polypeptides are essential immune defense components secreted by the respiratory tract ([41], [42]). To test the hypothesis that ITA/OXGR1 signaling may alter the concentration of mucins and antimicrobial polypeptides, we performed an ELISA to quantify the concentration of mucin 5b and β-defensin 1 in the mouse models of P. aeruginosa infection. […] It should be noted that Oxgr1 activation by ITA can simultaneously facilitate mucus secretion and mucus transport (Figure 4). These 2 “opposite” effects of ITA/OXGR1 on mucus may explain the observation of a lack of significant change in mucin 5b and β-defensin 1 in the airway’s surface liquid.
# [9] = system: respiratory epithelium mucin secretion; assay: Intranasal administration, mucin-containing cells in nasal cavity (Alcian blue/PAS); format: in vivo, mouse; conditions: intranasal 500 μM ITA, 1 hour
# Source text: Harvested mouse skulls were fixed in 4% paraformaldehyde overnight and decalcified with 12% EDTA for 2 weeks. After full decalcification, the snoots were trimmed in between the incisor teeth and the first molar teeth. Trimmed tissues were embedded with paraffin, and sections were taken from the most proximal aspect of the nasal cavity. Mucin-containing epithelial cells distributed in the basement membrane of the nasal cavity floor and septum were visualized by Alcian blue/PAS staining and manually counted.
smiles,measurement,setting,value
"C=C(CC(=O)O)C(=O)O [ITA, itaconate]",intracellular cAMP,human OXGR1 [1],did not affect intracellular cAMP
same,endocytosis of R110A or R261A mutant OXGR1,FLAG-tagged OXGR1 [2],did not undergo endocytosis
same,endocytosis of OXGR1,FLAG-tagged OXGR1 [3],rapid endocytosis of OXGR1 was triggered
same,"calcium mobilization, Oxgr1+/+ cells",[4],rapid calcium mobilization
same,stress fiber formation,human OXGR1 [5],failed to affect stress fiber formation
same,"movement of beads, trachea from Oxgr1+/+ mice",mouse trachea,significantly increased the movement of beads
same,EC50,human OXGR1 [6],221 ± 107 µM
same,calcium response (agonist effect),"human OXGR1 [7]; HEK293 cells overexpressing human OXGR1, aequorin",stimulated the calcium response in a dose-dependent manner
same,EC50,"human OXGR1 [7]; OXGR1, as stated in abstract",~300 µM
same,EC50,"human OXGR1 [7]; aequorin assay, hOXGR1 in HEK293 cells",310 ± 45.2 µM
same,EC50,"human OXGR1 [7]; human OXGR1, text summary of Figure 1F and Supplemental Figure 2 (aequorin and Fluo-4)",200 to 300 µM
same,level of mucin 5b in BAL,[8],Neither ITA intranasal supplementation nor Irg1 or Oxgr1 KO altered the levels
same,level of β-defensin 1 in BAL,[8],Neither ITA intranasal supplementation nor Irg1 or Oxgr1 KO altered the levels
same,"mucin-containing cells in respiratory epithelium, Oxgr1+/+ mice",[9],decrease of mucin-containing cells
same,"mucin-containing cells in respiratory epithelium, Oxgr1–/– mice",[9],did not observe an effect
